The DC50 is the concentration giving 50% degradation. A low value points to a more potent degrader. A word on the Dmax: it is the largest share of the target that was removed. Read a high Dmax as deep degradation.

This note sets out measurements from patent US20240342292A1, “Compounds for the Degradation of EGFR Kinase” (BeiGene Switzerland GmbH, priority 2021, published 2024).

The subject of assay [1] is Del19/T790M/C797S EGFR. As to the kind of experiment: EGFR degradation HTRF assay in H1975-clone #28 (DTC) cells. It is filed as cell-based. To be noted: H1975 # 28 DTC (Del19/T790M/C797S), 16h treatment; for DC50: HTRF; for Dmax (%): maximum percentage of degradation. In a few lines:
(§1)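 H1975 clones with endogenous EGFR knocked out and lentivirally expressed mutant EGFR treated 16 h at 37 °C with compounds, 8 doses from 10 uM, 5-fold dilutions, 0.2% DMSO. Lysates read by HTRF (665/620 nm) overnight; DC50 from four-parameter fit.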

Assay [2] addresses T1, L858R/T790M/C797S EGFR (Homo sapiens, UniProt P00533, C797S/L858R/T790M).
T1 construct: expressed in transfected cells; host or cells: H1975 clone #25 (lentiviral over-expression, endogenous EGFR knocked out by sgRNA)
Description: EGFR degradation HTRF assay in H1975-clone #25 (LTC) cells. To be noted: 16h treatment; for DC50: H1975 # 25-LTC (L858R/T790M/C797S), HTRF; for Dmax: NCI-H1975, H1975 # 25-LTC (L858R/T790M/C797S), maximum percentage of degradation. It is filed as cell-based. In a few lines:
as §1
On the technique in general: Time-resolved FRET reads energy transfer from a long-lived donor to a nearby acceptor.

Structures are written as SMILES.

T1 sequence (P00533 25-1210 T790M/C797S/L858R): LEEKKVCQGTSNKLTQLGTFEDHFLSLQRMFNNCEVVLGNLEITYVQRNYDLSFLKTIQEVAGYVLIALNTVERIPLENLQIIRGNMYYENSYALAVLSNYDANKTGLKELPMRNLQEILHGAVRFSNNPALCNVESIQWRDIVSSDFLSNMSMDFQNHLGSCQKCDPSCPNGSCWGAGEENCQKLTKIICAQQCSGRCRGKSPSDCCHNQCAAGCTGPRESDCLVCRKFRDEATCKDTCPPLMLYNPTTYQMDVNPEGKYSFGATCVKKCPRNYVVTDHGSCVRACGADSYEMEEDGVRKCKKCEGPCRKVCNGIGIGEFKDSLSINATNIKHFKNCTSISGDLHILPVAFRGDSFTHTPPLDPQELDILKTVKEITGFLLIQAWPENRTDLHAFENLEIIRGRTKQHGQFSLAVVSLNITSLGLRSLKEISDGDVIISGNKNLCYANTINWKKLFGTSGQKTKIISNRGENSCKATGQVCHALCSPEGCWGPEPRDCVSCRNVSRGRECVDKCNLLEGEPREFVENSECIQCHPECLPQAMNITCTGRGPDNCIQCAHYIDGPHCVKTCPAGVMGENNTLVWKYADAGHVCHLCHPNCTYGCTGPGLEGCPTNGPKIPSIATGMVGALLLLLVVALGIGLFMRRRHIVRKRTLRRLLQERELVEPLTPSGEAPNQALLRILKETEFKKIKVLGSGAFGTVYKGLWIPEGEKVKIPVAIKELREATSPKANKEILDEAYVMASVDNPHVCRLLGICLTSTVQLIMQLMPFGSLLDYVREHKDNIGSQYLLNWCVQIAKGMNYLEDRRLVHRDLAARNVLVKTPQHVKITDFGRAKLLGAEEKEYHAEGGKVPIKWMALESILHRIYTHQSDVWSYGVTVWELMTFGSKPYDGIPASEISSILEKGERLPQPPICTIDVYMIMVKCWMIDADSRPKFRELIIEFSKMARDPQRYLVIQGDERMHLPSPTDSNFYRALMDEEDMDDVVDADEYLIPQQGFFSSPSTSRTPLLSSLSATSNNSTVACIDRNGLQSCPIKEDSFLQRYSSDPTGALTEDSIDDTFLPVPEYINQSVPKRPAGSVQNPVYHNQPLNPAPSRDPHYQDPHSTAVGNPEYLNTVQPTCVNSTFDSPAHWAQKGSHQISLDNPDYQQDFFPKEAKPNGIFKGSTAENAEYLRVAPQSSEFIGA

Turning to `COc1cc2cc(n1)-c1cnn(C)c1OCCC[C@@H](C)CN1/C(=N/C2=O)Nc2ccc(N3CCN(C4CCN(c5cc(F)c([C@H]6CCC(=O)NC6=O)c(F)c5)CC4)CC3)cc21` [Example 453, (R)-3-(2,6-difluoro-4-(4-(4-((R,E)-2^6-methoxy-1^1,7-dimethyl-3-oxo-5^2,5^3-dihydro-1^1H,5^1H-11-oxa-4-aza-5(2,1)-benzo[d]imidazola-2(2,4)-pyridina-1(4,5)-pyrazolacycloundecaphane-5^6-yl)piperazin-1-yl)piperidin-1-yl)phenyl)piperidine-2,6-dione], in assay [1], the DC50 is 1.43 nM and the “Dmax (%)” value stood at 82.83%. In addition, in assay [2], it took 3.17 nM to reach half-maximal degradation (DC50) and the Dmax stood at 85.3%.

In the case of `Cc1cc2cc(n1)-c1cnn(C)c1OCCC[C@@H](C)CN1/C(=N/C2=O)Nc2ccc(N3CCN([C@H]4CCN(c5cc(F)c([C@H]6CCC(=O)NC6=O)c(F)c5)C[C@@H]4F)CC3)cc21` (single isomer, unassigned) [Example 424], in assay [1], half-maximal degradation (DC50) was put at 0.794 nM and the “Dmax (%)” value is 82.75%. In assay [2], this compound showed a DC50 of 2.51 nM and a Dmax of 89.8%.

As for `Cc1cc2cc(n1)-c1cnn(C)c1OCCC[C@@H](C)CN1/C(=N/C2=O)Nc2ccc(C(=O)N(C)[C@@H]3CCN(C4CN(c5cc(F)c([C@H]6CCC(=O)NC6=O)c(F)c5)C4)C[C@@H]3F)cc21` [Example 382, (R,E)-N—((3S,4R)-1-(1-(4-((R)-2,6-dioxopiperidin-3-yl)-3,5-difluorophenyl)azetidin-3-yl)-3-fluoropiperidin-4-yl)-N,1^1,2^6,7-tetramethyl-3-oxo-5^2,5^3-dihydro-1^1H,5^1H-11-oxa-4-aza-5(2,1)-benzo[d]imidazola-2(2,4)-pyridina-1(4,5)-pyrazolacycloundecaphane-5^5-carboxamide], in assay [1], it took 0.617 nM to reach half-maximal degradation (DC50) and the “Dmax (%)” value was 86.76%. In assay [2], the DC50 was 0.233 nM and the Dmax was 87.5%.

As for `Cc1cc2cc(n1)-c1cnn(C)c1OCCC[C@@H](C)CN1/C(=N/C2=O)Nc2ccc(CN3CCN(C(=O)C4CN(c5cc(F)c([C@H]6CCC(=O)NC6=O)c(F)c5)C4)CC3)cc21` [Example 76, (R)-3-(2,6-difluoro-4-(3-(4-(((R,E)-1^1,2^6,7-trimethyl-3-oxo-5^2,5-dihydro-1^1H,5^1H-11-oxa-4-aza-5(2,1)-benzo[d]imidazola-2(2,4)-pyridina-1(4,5)-pyrazolacycloundecaphane-5^6-yl)methyl)piperazine-1-carbonyl)azetidin-1-yl)phenyl)piperidine-2,6-dione], in assay [1], the 50% degradation concentration (DC50) came to 0.7 nM and the “Dmax (%)” value is on record as 75.8%. Also, in assay [2], the DC50 is 0.9 nM and the maximal degradation (Dmax) is 84.4%.

Regarding `Cc1cc2cc(n1)-c1cnn(C)c1OCCC[C@@H](C)CN1/C(=N/C2=O)Nc2ccc(N3CCN(C4CCN(c5cc(F)c([C@H]6CCC(=O)NC6=O)c(F)c5)CC4)C[C@@H]3C)cc21` [Example 383, (R)-3-(2,6-difluoro-4-(4-((S)-3-methyl-4-((R,E)-1^1,2^6,7-trimethyl-3-oxo-5^2,5^3-dihydro-1^1H,5^1H-11-oxa-4-aza-5(2,1)-benzo[d]imidazola-2(2,4)-pyridina-1(4,5)-pyrazolacycloundecaphane-5-yl)piperazin-1-yl)piperidin-1-yl)phenyl)piperidine-2,6-dione], in assay [1], it took 2.19 nM to reach half-maximal degradation (DC50) and the “Dmax (%)” value turned out to be 73.18%. In assay [2], the DC50 amounted to 1.34 nM and the Dmax was found to be 88.8%.

Consider `Cc1cc2cc(n1)-c1cnn(C)c1OCCC[C@@H](C)CN1/C(=N/C2=O)Nc2ccc(N3CCC(N4CCN(c5cc(F)c([C@H]6CCC(=O)NC6=O)c(F)c5)CC4)CC3)cc21` [Example 387, (R)-3-(2,6-difluoro-4-(4-(1-((R,E)-1^1,2^6,7-trimethyl-3-oxo-5^2,53-dihydro-1^1H,5^1H-11-oxa-4-aza-5(2,1)-benzo[d]imidazola-2(2,4)-pyridina-1(4,5)-pyrazolacycloundecaphane-5^6-yl)piperidin-4-yl)piperazin-1-yl)phenyl)piperidine-2,6-dione], for which, in assay [1], the DC50 is 0.782 nM and the “Dmax (%)” value came out at 76.00%. In assay [2], this compound came in with a half-maximal degradation concentration (DC50) of 1.46 nM and a Dmax of 87.2%.
